Data set [1] deals with T1, (human) A2A adenosine receptors (Homo sapiens, UniProt P29274).
T1 construct: purchased PerkinElmer Research Products (Boston, Mass.); host or cells: HEK-293
In words: Radioligand binding test ([3H]CGS21680 displacement, hA2A HEK-293 cell membranes). Particulars: for Ki: read-out: Ki (inhibition constant). The method, then:
Cell membranes stably transfected with (human) A2A adenosine receptors were prepared in HEK-293 cells. The cell membranes were obtained from PerkinElmer Research Products (Boston, Mass.).
The A2A adenosine receptors used were all expressed in the cell membranes. […] (final 25 nM) was added to the diluted cell membrane, and mixed well. 50 μL of the prepared dilution solution of cell membrane was transferred to the 384-well Opti-plate containing compound and incubated at 25° C. for 90 minutes. 100 μL of 0.5% Polyethyleneimine solution (PEI) was added to […]-96 GF/B filter plate, and soaked for 90 minutes at 4° C., then 500 μL of washing buffer/well (50 mM Tris-HCl pH 7.4, 154 mM NaCl) was transferred with Cell Harvester to wash the […]-96 GF/B filter plate twice. The mixed system in the Opti-plate was transferred to the washed […]-96 GF/B filter plate, 500 μL of washing buffer/well (50 mM Tris-HCl pH 7.4, 154 mM NaCl) was used to wash the […]-96 GF/B filter plate 9 times. Incubation was performed in 37° C. incubator for 3 minutes. 40 μL of ULTIMA GOLD scintillation solution (Perkin Elmer, Cat #77-16061) was added to each well, CPM (count per minute) value was read by a MicroBeta liquid scintillation counter (PerkinElmer).

Data set [2] has as its target human adenosine receptor A2A (Homo sapiens, UniProt P29274). In words: Adenosine receptor A2A cAMP test (LANCE Ultra cAMP, hADORA2A-HEK293 cells). It is filed as cell-based. The note with it: cAMP test. The source says:
Experimental reagents and consumables: DMEM/F12, G418, Penicillin-Streptomycin, Versene Solution, HEPES, Hank's Buffered Saline Solution, PBS (pH 7.4, 1×, sterile), FBS, BSA Stabilizer 7.5%, Rolipram, NECA were separately purchased from Gibico, Hyclone and Sigma. LANCE® Ultra cAMP kit (Eu-cAMP tracer, Ulight-anti-cAMP reagent, cAMP detection buffer) and hADORA2A-HEK293 cells were purchased from PerkinElmer Research Products (Boston, Mass.). All other reagents were of analytical grade and obtained from commercial sources. 384-well polypropylene microplate and 384-well solid white plate were purchased from Labcyte and Corning, respectively.
The cells stably expressing human adenosine receptor A2A (hADORA2A-HEK293 cells) were cultured in DMEM/F12 medium containing 10% FBS, 1×Penicillin-Streptomycin and 400 μg/ml G418 in a 37° C. and 5% CO2 environment. Before the experiment, the cells were digested with Versene solution, and the cells were collected by centrifugation at 200 g and room temperature for 5 minutes, and finally resuspended with assay buffer (Hank's buffered saline solution, containing 5 mM HEPES, 0.1% BSA stabilizer and 10 μM Rolipram, pH 7.4). The TECAN automated liquid handling workstation was used to dilute the compound in a 384-well polypropylene microplate with DMSO to 11 concentration points in a 3-fold gradient to prepare the compound source plate, in which the 11 concentration points of the compound were 10 mM, 3.33 mM, 1.11 mM., 0.3 7mM, 0.1 2 mM, 0.041 mM, 0.013 mM, 4.57×10^−3 mM, 1.52×10^−3 mM, 5×10^−4 mM and 1.7×10^−4 mM. The Echo Acoustic Liquid Handler (Labcyte) was used to transfer the test compound from the compound source plate to an assay plate, in which the transfer volume of the compound was 10 nl/well. The hADORA2A-HEK293 cell suspension was diluted with assay buffer to 30,000 cells/ml, and the cell suspension was transferred to the assay plate at a volume of 10 μl/well (300 cells/well). The assay plate was centrifuged at 150 g for 1 minute and pre-incubated at room temperature for 30 minutes. The Eu-cAMP tracer working solution (Eu-cAMP tracer 40 μl, cAMP detection buffer 1.96 ml) (5 μl/well) was added to the assay plate, and then the Ulight-anti-cAMP working solution (13 μl of Ulight-anti-cAMP reagent and 1.95 ml of cAMP detection buffer) (5 µl/well) was added to the assay plate. The assay plate was rotated at 150 g for 30 seconds and incubated at room temperature for 30 minutes. The EnVision multimode plate reader (PerkinElmer) was used determine the level of cyclic adenosine monophosphate in the final solution (λex=320 nm, λem=665 nm & 615 nm). The EC50 (nM) value of the compound interacting with the A2A adenosine receptor to stimulate the production of cyclic adenosine monophosphate was calculated and the A2A receptor agonist titer of the compound was expressed as the EC50 (nM) value.
(Time-resolved FRET reads energy transfer from a long-lived donor to a nearby acceptor.)

Setting [3] is: calculated from IC50 by Cheng and Prusoff equation, [S] 25 nM, Km […] nM.

SMILES strings stand for the structures. Where two headings read alike, the source gives them in different places.

Usually IC50 stands for the concentration at which inhibition is half-maximal. Higher therefore signals weaker potency. Broadly, the Ki is a dissociation constant, usually derived from enzyme kinetics or from competition with a known ligand. As a reminder, the melting point is the temperature of the solid-liquid transition.

T1 sequence (P29274 whole entry): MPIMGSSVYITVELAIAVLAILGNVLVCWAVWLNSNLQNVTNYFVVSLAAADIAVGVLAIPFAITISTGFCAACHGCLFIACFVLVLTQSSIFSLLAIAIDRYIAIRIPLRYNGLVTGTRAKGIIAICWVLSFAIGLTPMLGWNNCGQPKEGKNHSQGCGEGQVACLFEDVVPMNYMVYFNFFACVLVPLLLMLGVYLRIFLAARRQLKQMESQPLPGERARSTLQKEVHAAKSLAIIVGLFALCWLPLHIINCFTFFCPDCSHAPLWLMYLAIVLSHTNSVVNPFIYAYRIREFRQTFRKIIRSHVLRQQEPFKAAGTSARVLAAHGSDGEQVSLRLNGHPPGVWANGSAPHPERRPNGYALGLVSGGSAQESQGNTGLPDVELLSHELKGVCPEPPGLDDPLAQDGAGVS
human adenosine receptor A2A, sequence (P29274 whole entry): as above

In turn, `CC(=O)Nc1ccc(/C=N/Nc2nc(N)c3ncn([C@@H]4O[C@H](CO)[C@@H](O)[C@H]4O)c3n2)cc1` [Compound 1, N-{4-{(E)-{2-{6-amino-9-[(2R,3R,4S,5R)-3,4-dihydroxy-5-(hydroxymethyl)tetrahydrofuran-2-yl]-9H-purin-2-yl}hydrazono}methyl}phenyl}acetamide] yielded a melting point of 126 °C. Further, the IC50 in data set [1] is 2840 nM. In data set [1] (setting [3]), the Ki is 1330 nM.

Molecule `Nc1nc(N/N=C/c2ccc(C(F)(F)F)cc2C(F)(F)F)nc2c1ncn2[C@@H]1O[C@H](CO)[C@@H](O)[C@H]1O` [Compound 3, (2R,3R,4S,5R)-2-{6-amino-2-{2-[(E)-2,4-bis(trifluoromethyl)benzylidene]hydrazino}-9H-purin-9-yl}-5-(hydroxymethyl)tetrahydrofuran-3,4-diol] had a melting point of 239 °C. The molecule further displayed an IC50 in data set [1] of more than 10000 nM.

`Nc1nc(N/N=C/c2ccc(N(c3ccccc3)c3ccccc3)cc2)nc2c1ncn2[C@@H]1O[C@H](CO)[C@@H](O)[C@H]1O` [Compound 4, (2R,3R,4S,5R)-2-{6-amino-2-{2-[(E)-4-(diphenylamino)benzylidene]hydrazino}-9H-purin-9-yl}-5-(hydroxymethyl)tetrahydrofuran-3,4-diol] returned a melting point of 184 °C. Besides, the half-maximal inhibitory concentration (IC50) in data set [1] is 142 nM. In data set [1] (setting [3]), the inhibition constant (Ki) was 66.7 nM.

For `Nc1nc(N/N=C/c2cccc(OCc3ccccc3)c2)nc2c1ncn2[C@@H]1O[C@H](CO)[C@@H](O)[C@H]1O` [Compound 6, (2R,3R,4S,5R)-2-{6-amino-2-{2-[(E)-3-(benzyloxy)benzylidene] hydrazino}-9H-purin-9-yl}-5-(hydroxymethyl)tetrahydrofuran-3,4-diol], the melting point is 148 °C. In data set [1], the IC50 stood at 369 nM. The Ki in data set [1] (setting [3]) was 173 nM.

On to `Nc1nc(N/N=C/c2ccc(Cl)c(C(F)(F)F)c2)nc2c1ncn2[C@@H]1O[C@H](CO)[C@@H](O)[C@H]1O` [Compound 7, (2R,3R,4S,5R)-2-{6-amino-2-{2-[(E)-4-chloro-3-(trifluoromethyl)benzylidene]hydrazino}-9H-purin-9-yl}-5-(hydroxymethyl)tetrahydrofuran-3,4-diol], for which the melting point is 242 °C. The same molecule gave a concentration for half-maximal inhibition (IC50) in data set [1] of 1710 nM. The Ki in data set [1] (setting [3]) was 801 nM.

`Nc1nc(N/N=C/c2ccc(-c3ccccn3)cc2)nc2c1ncn2[C@@H]1O[C@H](CO)[C@@H](O)[C@H]1O` [Compound 8, (2R,3R,4S,5R)-2-{6-amino-2-{2-[(E)-4-(pyridin-2-yl)benzylidene] hydrazino}-9H-purin-9-yl}-5-(hydroxymethyl)tetrahydrofuran-3,4-diol] showed a melting point of 164 °C. For the same molecule, in data set [1], the IC50 was 445 nM. Also, the Ki in data set [1] (setting [3]) was 208 nM.

In turn, `Nc1nc(N/N=C/c2ccc(-c3ccccc3)cc2)nc2c1ncn2[C@@H]1O[C@H](CO)C(O)C1O` (stereo partly drawn) [Compound 9] returned a melting point of 234 °C. Further, in data set [2], the “hA2AAR agonist function” value is reported as “shown as hA2AAR agonists”.

`Nc1nc(N/N=C/c2ccc(N3CCCC3)cc2)nc2c1ncn2[C@@H]1O[C@H](CO)[C@@H](O)[C@H]1O` [Compound 10, (2R,3R,4S,5R)-2-{6-amino-2-{2-[(E)-4-(pyrrolidin-1-yl)benzylidene]hydrazino}-9H-purin-9-yl}-5-(hydroxymethyl)tetrahydrofuran-3,4-diol] yielded a melting point of 174 °C. Besides, the concentration for half-maximal inhibition (IC50) in data set [1] was more than 10000 nM.

`Nc1nc(N/N=C/c2ccc(C(F)(F)F)cc2)nc2c1ncn2[C@@H]1O[C@H](CO)[C@@H](O)[C@H]1O` [Compound 11, (2R,3R,4S,5R)-2-{6-amino-2-{2-[(E)-4-(trifluoromethyl)benzylidene]hydrazino}-9H-purin-9-yl)-5-(hydroxymethyl)tetrahydrofuran-3,4-diol] registered a melting point of 260 °C. The IC50 in data set [1] was determined as 131 nM. For the same molecule, the inhibition constant (Ki) in data set [1] (setting [3]) was 61.3 nM.

Take `Nc1nc(N/N=C/c2ccc(-n3ccnc3)cc2)nc2c1ncn2[C@@H]1O[C@H](CO)[C@@H](O)[C@H]1O` [Compound 12, (2R,3R,4S,5R)-2-{2-{2-[(E)-4-(1H-imidazol-1-yl)benzylidene]hydrazino}-6-amino-9H-purin-9-yl}-5-(hydroxymethyl)tetrahydrofuran-3,4-diol]: the melting point came out at 276 °C. Besides, the 50% inhibitory concentration (IC50) in data set [1] is 462 nM. For the same molecule, the inhibition constant Ki in data set [1] (setting [3]) is 216 nM.

Molecule `CCCOc1ccc(/C=N/Nc2nc(N)c3ncn([C@@H]4O[C@H](CO)C(O)C4O)c3n2)cc1` (stereo partly drawn) [Compound 13, (2R,3R,45,5R)-2-{6-amino-2-{2-[(E)-4-propoxybenzylidene]hydrazino}-9H-purine-9-yl}-5-(hydroxymethyl)tetrahydrofuran-3,4-diol] came in with a melting point of 218 °C. In data set [1], the IC50 turned out to be 479 nM and the Ki worked out at 224 nM.

In the case of `N#Cc1ccccc1/C=N/Nc1nc(N)c2ncn([C@@H]3O[C@H](CO)C(O)C3O)c2n1` (stereo partly drawn) [Compound 14], the melting point is 260 °C.

`CCOc1cc(/C=N/Nc2nc(N)c3ncn([C@@H]4O[C@H](CO)[C@@H](O)[C@H]4O)c3n2)ccc1O` [Compound 16, (2R,3R,4S,5R)-2-{6-amino-2-{2-[(E)-3-ethoxy-4-hydroxybenzylidene]hydrazino}-9H-purin-9-yl}-5-(hydroxymethyl)tetrahydrofuran-3,4-diol]: the melting point came to 198 °C. The molecule also yielded an IC50 in data set [1] of 3460 nM. Moreover, the inhibition constant Ki in data set [1] (setting [3]) is 1620 nM.

Molecule `Nc1nc(N/N=C/c2ccc(N3CCOCC3)cc2)nc2c1ncn2[C@@H]1O[C@H](CO)[C@@H](O)[C@H]1O` [Compound 17, (2R,3R,4S,5R)-2-{6-amino-2-{2-[(E)-4-morpholinobenzylidene]hydrazino}-9H-purin-9-yl}-5-(hydroxymethyl)tetrahydrofuran-3,4-diol] returned a melting point of 186 °C. This molecule also yielded an IC50 in data set [1] of 1710 nM. Further, in data set [1] (setting [3]), the Ki is 800 nM.

Turning to `COc1cc(/C=N/Nc2nc(N)c3ncn([C@@H]4O[C@H](CO)[C@@H](O)[C@H]4O)c3n2)cc(OC)c1OC` [Compound 18, (2R,3R,4S,5R)-2-{6-amino-2-{2-[(E)-3,4,5-trimethoxybenzylidene]hydrazino}-9H-purin-9-yl}-5-(hydroxymethyl)tetrahydrofuran-3,4-diol], the melting point was 246 °C. Moreover, in data set [1], the half-inhibitory concentration (IC50) is more than 10000 nM.

In turn, `COc1cc(/C=N/Nc2nc(N)c3ncn([C@@H]4O[C@H](CO)[C@@H](O)[C@H]4O)c3n2)ccc1OCc1ccccc1` [Compound 19, (2R,3R,4S,5R)-2-{6-amino-2-{2-[(E)-4-(benzyloxy)-3-methoxybenzylidene]hydrazino}-9H-purin-9-yl}-5-(hydroxymethyl)tetrahydrofuran-3,4-diol] returned a melting point of 146 °C. In addition, in data set [1], the IC50 worked out at 216 nM. Besides, in data set [1] (setting [3]), the Ki is 101 nM.

The values above are taken from patent US20220378816A1, “2-BENZYLIDENE HYDRAZINOADENOSINE COMPOUNDS HAVING A2A ADENOSINE RECEPTOR AGONISTIC ACTIVITY” (ACADEMY OF MILITARY MEDICAL SCIENCES, priority 2019, published 2022).
